Assays:
[1] = Storage stability of the lyophilized preparation at +4° C., HPLC comparison of fresh material and material stored nine months; format: physicochemical; details: lyophilized form
Excerpt: FIGS. 4A and 4B disclose HPLC chromatograms of hPTH-1-37. […] FIG. 4B is a chromatogram of hPTH-1-37 stored for nine months. […] Further, FIG. 5 discloses a comparison between the HPLC chromatograms of freshly prepared hPTH-1-37 (A) and a commercially obtainable preparation.

[2] = Stability of the active ingredient in hydrophilic ointment (cream) formulation; format: physicochemical; details: hydrophilic ointment DAB base; except for methionine-oxidized metabolites
Excerpt: In one embodiment of the invention, the hemoparatide (hPTH-1-37) or its derivatives are used for preparing a medicament in different galenic application forms, especially as a lyophilizate. In one embodiment of this medicament, a hydrophilic ointment, especially according to the German Pharmacopoeia, is used as a galenic application base. […] These oxidized metabolites also occur as natural PTH forms in the blood plasma, but can be avoided by working under a nitrogen atmosphere, and are free from side effects, being naturally occurring endogenous derivatives.
Hemoparatide was incorporated into this base in concentrations of 0.03% by weight, 0.1% by weight and 0.3% by weight.
These oxidized metabolites also occur as natural PTH forms in the blood plasma, but can be avoided by working under a nitrogen atmosphere, and are free from side effects, being naturally occurring endogenous derivatives.

[3] = Solubility, dissolution time (specification); format: physicochemical
[4] = Phase I trial, tolerability of subcutaneous injection in aqueous solution; format: in vivo; details: humans

| Stability of active ingredient in formulation [2] | Solubility, dissolution time [3] | Compound | Methionine-oxidized metabolites after storage (stability) [1] | Tolerability [4] |
| --- | --- | --- | --- | --- |
| very stable | ≦2 min | CC[C@H](C)[C@H](NC(=O)[C@H](CCC(=O)O)NC(=O)[C@H](CO)NC(=O)[C@@H](NC(=O)[C@@H](N)CO)C(C)C)C(=O)N[C@@H](CCC(N)=O)C(=O)N[C@@H](CC(C)C)C(=O)N[C@@H](CCSC)C(=O)N[C@@H](Cc1c[nH]cn1)C(=O)N[C@@H](CC(N)=O)C(=O)N[C@@H](CC(C)C)C(=O)NCC(=O)N[C@@H](CCCCN)C(=O)N[C@@H](Cc1c[nH]cn1)C(=O)N[C@@H](CC(C)C)C(=O)N[C@@H](CC(N)=O)C(=O)N[C@@H](CO)C(=O)N[C@@H](CCSC)C(=O)N[C@@H](CCC(=O)O)C(=O)N[C@@H](CCCNC(=N)N)C(=O)N[C@H](C(=O)N[C@@H](CCC(=O)O)C(=O)N[C@@H](Cc1c[nH]c2ccccc12)C(=O)N[C@@H](CC(C)C)C(=O)N[C@@H](CCCNC(=N)N)C(=O)N[C@@H](CCCCN)C(=O)N[C@@H](CCCCN)C(=O)N[C@@H](CC(C)C)C(=O)N[C@@H](CCC(N)=O)C(=O)N[C@@H](CC(=O)O)C(=O)N[C@H](C(=O)N[C@@H](Cc1c[nH]cn1)C(=O)N[C@@H](CC(N)=O)C(=O)N[C@@H](Cc1ccccc1)C(=O)N[C@H](C(=O)N[C@@H](C)C(=O)N[C@@H](CC(C)C)C(=O)O)C(C)C)C(C)C)C(C)C [hPTH-1-37] | Only very small amounts of methionine-oxidized metabolites can be detected |  |
|  | ≦2 min | CC[C@H](C)[C@H](NC(=O)[C@H](CCC(=O)O)NC(=O)[C@H](CO)NC(=O)[C@@H](NC(=O)[C@@H](N)CO)C(C)C)C(=O)N[C@@H](CCC(N)=O)C(=O)N[C@@H](CC(C)C)C(=O)N[C@@H](CCSC)C(=O)N[C@@H](Cc1c[nH]cn1)C(=O)N[C@@H](CC(N)=O)C(=O)N[C@@H](CC(C)C)C(=O)NCC(=O)N[C@@H](CCCCN)C(=O)N[C@@H](Cc1c[nH]cn1)C(=O)N[C@@H](CC(C)C)C(=O)N[C@@H](CC(N)=O)C(=O)N[C@@H](CO)C(=O)N[C@@H](CCSC)C(=O)N[C@@H](CCC(=O)O)C(=O)N[C@@H](CCCNC(=N)N)C(=O)N[C@H](C(=O)N[C@@H](CCC(=O)O)C(=O)N[C@@H](Cc1c[nH]c2ccccc12)C(=O)N[C@@H](CC(C)C)C(=O)N[C@@H](CCCNC(=N)N)C(=O)N[C@@H](CCCCN)C(=O)N[C@@H](CCCCN)C(=O)N[C@@H](CC(C)C)C(=O)N[C@@H](CCC(N)=O)C(=O)N[C@@H](CC(=O)O)C(=O)N[C@H](C(=O)N[C@@H](Cc1c[nH]cn1)C(=O)N[C@@H](CC(N)=O)C(=O)N[C@@H](Cc1ccccc1)C(=O)N[C@H](C(=O)N[C@@H](C)C(=O)N[C@@H](CC(C)C)C(=O)O)C(C)C)C(C)C)C(C)C [highly pure hemoparatide] | only a small amount of methionine-oxidized metabolites appears | high tolerability |

From patent publication US20110263509A1, “PREPARATION AND USE OF HIGH-PURITY HEMOPARATIDE (HPTH-1-37) FOR THE TREATMENT OF INFLAMMATORY SCALING DISEASES OF THE SKIN” (Haemopep Pharma GmbH, priority 2008, published 2011)
